In ChEMBL document CHEMBL1127008, “Synthesis of myo-inositol 1,2,4,5-tetrakisphosphate, a Ca2+-mobilising tetrakisphosphate with a potency similar to myo-inositol 1,4,5-trisphosphate” (Bioorg Med Chem Lett, 1993):

Tests used:
[1] = Compound was evaluated for its ability to mobilize calcium from [Ca(2+)]-preloaded SH-SY5Y cells permeabilised using saponin; type: functional, cell-based; conditions: Homo sapiens
Rattus norvegicus = species: Rattus norvegicus; assay: Enzyme kinetics constant (Km value) was determined in rat brain homogenate […]; type: functional
Homo sapiens [2] = species: Homo sapiens; assay: Enzyme kinetics constant (Km value) was determined in human erythrocyte membrane […]; type: functional
[3] = Compound was evaluated for its ability to mobilize calcium in 1321NI cells; type: functional, cell-based
Homo sapiens [4] = species: Homo sapiens; assay: Compound was evaluated for the inhibition of [3H]- Ins(1,4,5)P3 dephosphorylation by human erythrocyte membrane Ins(1,4,5)P3 5-phosphatase; type: functional
[5] = biological target: Inositol 1,4,5-trisphosphate-gated calcium channel ITPR3 (Bos taurus, UniProt Q8WN95); assay: Compound was evaluated for its ability to displace [3H]Ins(1,4,5)P3 from membranes prepared from bovine adrenal corticles
[6] = Inhibition of Ins(1,4,5)P3 phosphorylation by rat brain homogenate; type: functional
[7] = Compound was evaluated for its ability to mobilize calcium from [Ca(2+)]-preloaded SH-SY5Y cells permeabilised using saponin; devoid of [Ca2+] mobilising activity; type: functional, cell-based, Homo sapiens

Chain of Inositol 1,4,5-trisphosphate-gated calcium channel ITPR3 (Q8WN95 whole entry): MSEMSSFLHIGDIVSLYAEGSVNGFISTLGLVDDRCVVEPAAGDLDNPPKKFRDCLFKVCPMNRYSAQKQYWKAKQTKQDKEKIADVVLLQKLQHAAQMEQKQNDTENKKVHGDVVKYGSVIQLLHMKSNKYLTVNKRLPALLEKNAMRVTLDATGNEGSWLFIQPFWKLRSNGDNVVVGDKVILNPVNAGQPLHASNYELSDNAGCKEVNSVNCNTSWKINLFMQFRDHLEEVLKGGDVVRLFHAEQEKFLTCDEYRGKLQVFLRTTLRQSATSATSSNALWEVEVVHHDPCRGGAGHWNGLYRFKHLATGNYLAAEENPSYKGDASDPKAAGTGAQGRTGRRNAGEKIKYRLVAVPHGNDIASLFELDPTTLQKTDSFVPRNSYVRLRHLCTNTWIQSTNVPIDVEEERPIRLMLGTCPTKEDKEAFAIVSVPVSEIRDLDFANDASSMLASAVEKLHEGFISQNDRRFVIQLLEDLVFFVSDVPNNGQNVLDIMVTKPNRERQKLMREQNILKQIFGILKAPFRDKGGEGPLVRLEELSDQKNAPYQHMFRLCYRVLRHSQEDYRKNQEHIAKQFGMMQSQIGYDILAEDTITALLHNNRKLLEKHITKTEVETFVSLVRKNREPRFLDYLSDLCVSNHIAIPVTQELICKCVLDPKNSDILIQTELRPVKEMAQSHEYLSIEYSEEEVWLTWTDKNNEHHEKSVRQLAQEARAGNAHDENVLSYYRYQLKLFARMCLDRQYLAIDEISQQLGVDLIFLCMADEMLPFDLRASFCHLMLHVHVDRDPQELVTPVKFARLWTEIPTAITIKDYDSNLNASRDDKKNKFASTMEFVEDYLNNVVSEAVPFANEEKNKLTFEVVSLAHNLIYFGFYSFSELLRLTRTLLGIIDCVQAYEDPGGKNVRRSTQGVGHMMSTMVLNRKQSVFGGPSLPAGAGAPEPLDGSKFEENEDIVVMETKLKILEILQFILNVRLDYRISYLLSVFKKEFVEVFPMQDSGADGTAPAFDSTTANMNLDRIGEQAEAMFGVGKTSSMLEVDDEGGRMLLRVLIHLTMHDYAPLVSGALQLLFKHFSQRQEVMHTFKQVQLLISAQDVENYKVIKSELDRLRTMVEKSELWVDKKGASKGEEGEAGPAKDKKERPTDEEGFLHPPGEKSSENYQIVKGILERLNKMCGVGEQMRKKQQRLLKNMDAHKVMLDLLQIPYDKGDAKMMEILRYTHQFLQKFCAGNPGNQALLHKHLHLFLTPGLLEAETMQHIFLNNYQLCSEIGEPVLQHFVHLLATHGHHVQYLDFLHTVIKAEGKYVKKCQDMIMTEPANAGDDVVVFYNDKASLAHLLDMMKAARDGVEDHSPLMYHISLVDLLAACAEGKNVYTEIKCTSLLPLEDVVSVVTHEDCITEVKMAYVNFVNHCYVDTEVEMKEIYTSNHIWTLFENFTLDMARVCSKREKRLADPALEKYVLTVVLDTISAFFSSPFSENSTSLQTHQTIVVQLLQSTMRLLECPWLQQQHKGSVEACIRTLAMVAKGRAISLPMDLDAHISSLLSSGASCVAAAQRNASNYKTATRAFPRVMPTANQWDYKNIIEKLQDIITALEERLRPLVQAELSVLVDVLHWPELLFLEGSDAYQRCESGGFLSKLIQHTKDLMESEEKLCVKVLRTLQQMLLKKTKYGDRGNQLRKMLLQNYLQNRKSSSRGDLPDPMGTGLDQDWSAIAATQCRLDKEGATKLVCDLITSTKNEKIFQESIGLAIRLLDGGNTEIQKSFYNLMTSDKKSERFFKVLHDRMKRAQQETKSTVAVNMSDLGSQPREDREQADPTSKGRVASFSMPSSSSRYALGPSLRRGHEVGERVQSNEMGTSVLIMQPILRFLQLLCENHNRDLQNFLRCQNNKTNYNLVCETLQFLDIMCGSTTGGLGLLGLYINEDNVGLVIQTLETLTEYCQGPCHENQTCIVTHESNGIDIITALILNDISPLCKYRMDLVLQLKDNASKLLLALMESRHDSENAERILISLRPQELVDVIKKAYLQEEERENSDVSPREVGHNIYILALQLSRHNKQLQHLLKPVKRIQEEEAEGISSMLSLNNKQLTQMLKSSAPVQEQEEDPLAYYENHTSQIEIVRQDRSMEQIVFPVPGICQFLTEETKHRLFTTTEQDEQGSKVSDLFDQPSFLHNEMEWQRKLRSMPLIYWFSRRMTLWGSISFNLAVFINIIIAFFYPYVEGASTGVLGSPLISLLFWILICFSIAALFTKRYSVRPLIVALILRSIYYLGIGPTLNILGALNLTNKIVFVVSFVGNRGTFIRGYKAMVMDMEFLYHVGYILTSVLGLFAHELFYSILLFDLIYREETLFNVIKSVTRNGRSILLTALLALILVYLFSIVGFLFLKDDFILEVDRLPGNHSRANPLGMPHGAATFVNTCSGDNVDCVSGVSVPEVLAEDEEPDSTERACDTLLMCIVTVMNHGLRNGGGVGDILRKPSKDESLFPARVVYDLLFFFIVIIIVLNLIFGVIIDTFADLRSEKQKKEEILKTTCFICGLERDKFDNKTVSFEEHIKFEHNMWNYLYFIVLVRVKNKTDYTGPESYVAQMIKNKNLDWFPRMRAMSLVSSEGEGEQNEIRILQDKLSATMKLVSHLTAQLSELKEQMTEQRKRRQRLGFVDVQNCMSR

EC50 [1] | Km (Rattus norvegicus) | Km (Homo sapiens [2]) | EC50 [3] | Ki (Homo sapiens [4]) | Ki [5] | Ki [6] | EC50 [7] | SMILES
0.052 µM | 1.5 µM | 31.8 µM | – | – | – | – | – | O=P(O)(O)O[C@@H]1[C@H](O)[C@H](O)[C@@H](OP(=O)(O)O)[C@H](OP(=O)(O)O)[C@H]1O [INS(1,4,5)P3]
– | – | – | < 100 µM | 15.9 µM | < 3 µM | 100 µM | Not Active | O=C(OC1C(OP(=O)(O)O)C(OP(=O)(O)O)C(OC(=O)c2ccccc2)C(OP(=O)(O)O)C1OP(=O)(O)O)c1ccccc1 (centres undefined)
2.1 µM | – | – | – | – | – | – | – | O=P(O)(O)O[C@H]1[C@H](O)[C@@H](OP(=O)(O)O)[C@H](OP(=O)(O)O)[C@@H](OP(=O)(O)O)[C@H]1O
